Here are results for two compounds from patent publication US7485652B2, “Indolyl derivatives as liver-X-receptor (LXR) modulators” (Hoffmann-La Roche Inc., priority 2004, dated 2009).

The target of one assay is T1, human LXR beta (Homo sapiens, UniProt P55055).
T1 construct: human LXR beta (aa 155 to 460); made in house; host or cells: E. coli BL21(pLysS)
T1 sequence (P55055 155-460): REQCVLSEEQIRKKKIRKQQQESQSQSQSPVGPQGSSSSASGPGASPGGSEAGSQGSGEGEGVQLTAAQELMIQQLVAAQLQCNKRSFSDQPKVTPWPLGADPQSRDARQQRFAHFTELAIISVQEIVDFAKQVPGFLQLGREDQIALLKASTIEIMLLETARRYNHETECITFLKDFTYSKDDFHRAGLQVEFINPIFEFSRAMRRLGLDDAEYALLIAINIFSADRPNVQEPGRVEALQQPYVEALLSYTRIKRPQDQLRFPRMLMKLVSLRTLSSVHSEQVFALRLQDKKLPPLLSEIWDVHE
Briefly: Radioligand binding assay (scintillation proximity), LXR beta. The following applies: GST-LXR beta-LBD on SPA beads, radioligand displacement; read-out: LXRbeta Binding IC50. On the procedure:
(§1) The following tests were carried out in order to determine the activity of the compounds of the present invention. Background information on the performed assays can be found in: Nichols J S et al. “Development of a scintillation proximity assay for peroxisome proliferator-activated receptor gamma ligand binding domain”, Anal Biochem. 1998, 257: 112-119.
(§2) Mammalian expression vectors were constructed to express full-length human LXR alpha and LXR beta. Bacterial expression vectors were constructed to produce glutathione-s-transferase (GST) fused to the ligand binding domains (LBD) of human LXR alpha (aa 164 to 447) and human LXR beta (aa 155 to 460). To accomplish this, the portions of the sequences encoding the LBDs were amplified from full-length clones by PCR and then subdoned into the plasmid vectors. Final clones were verified by DNA sequence analysis (Willy et al., Genes Dev. 1995, 9:1033-45; Song et al., Proc Natl Acad Sci USA.1994, 91:10809-13). […]
(§3) LXR alpha and LXR beta receptor binding were assayed in buffer consisting of 50 mM HEPES, pH 7.4, 10 mM NaCl, 5 mM MgCl2. […] All binding assays were performed in 96-well plates and the amount of bound ligand was measured on a Packard TopCount using OptiPlates (Packard). Dose response curves were measured within a range of concentration from 10^−10 M to 10^−4 M.

The target of a further assay is T2, human LXR alpha (Homo sapiens, UniProt Q13133).
T2 construct: human LXR alpha (aa 164 to 447); made in house; host or cells: E. coli BL21(pLysS)
T2 sequence (Q13133 164-447): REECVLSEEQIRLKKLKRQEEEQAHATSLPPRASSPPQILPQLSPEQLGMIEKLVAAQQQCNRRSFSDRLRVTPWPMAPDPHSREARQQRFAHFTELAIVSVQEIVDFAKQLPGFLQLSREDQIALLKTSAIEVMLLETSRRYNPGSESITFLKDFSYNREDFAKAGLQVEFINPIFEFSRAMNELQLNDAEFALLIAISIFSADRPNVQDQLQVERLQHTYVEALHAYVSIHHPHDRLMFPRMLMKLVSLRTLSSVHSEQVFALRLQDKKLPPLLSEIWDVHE
Briefly: Radioligand binding assay (scintillation proximity), LXR alpha. The following applies: GST-LXRα-LBD on SPA beads, radioligand displacement; read-out: LXRalpha Binding IC50. The protocol: as §1, §2, §3
Background: In a scintillation proximity assay essentially only radioactivity close to the scintillant gives light.

Each structure is given as a SMILES string.

With `CC1Cc2cc(C(O)(C(F)(F)F)C(F)(F)F)ccc2N1Cc1cccc(CO)c1` (stereo not shown) [Example 50, 1,1,1,3,3,3-hexafluoro-2-[1-(3-hydroxymethyl-benzyl)-2-methyl-2,3-dihydro-1H-indol-5-yl]-propan-2-ol], the 50% inhibitory concentration (IC50) (commonly the concentration needed to halve the response being measured) was found to be 6 nM at human LXR beta and 20 nM at human LXR alpha.
As to `Cc1cc2cc(C(O)(C(F)(F)F)C(F)(F)F)ccc2n1Cc1ccccc1` [Example 80, 2-(1-benzyl-2-methyl-1H-indol-5-yl)-1,1,1,3,3,3-hexafluoro-propan-2-ol], the IC50 at human LXR beta is 50 nM; on human LXR alpha, 30 nM.
